Data published in patent publication US20200138827A1, “SMALL MOLECULE MODULATORS OF HUMAN STING” (Curadev Pharma Limited, priority 2017, published 2020).

The molecules below were run against T1, WT/R232 STING protein (Homo sapiens, UniProt Q86WV6, H232R) (assay: Luciferase reporter assay in HEK293T-hSTING-Luciferase cells, WT/R232). Settings: 20 hr stimulation, read-out: R232 Activity (EC50 range).
T1 construct: host or cells: HEK293T
Format: cell-based
Method in brief: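 […], read by luminescence from supernatant after 20 h compound stimulation. Cells: clonally selected HEK293T (5×10^5/well) stably carrying WT/R232 human STING and a luciferase reporter under five tandem ISREs fused to an ISG54 minimal promoter.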

T1 sequence (Q86WV6 whole entry H232R): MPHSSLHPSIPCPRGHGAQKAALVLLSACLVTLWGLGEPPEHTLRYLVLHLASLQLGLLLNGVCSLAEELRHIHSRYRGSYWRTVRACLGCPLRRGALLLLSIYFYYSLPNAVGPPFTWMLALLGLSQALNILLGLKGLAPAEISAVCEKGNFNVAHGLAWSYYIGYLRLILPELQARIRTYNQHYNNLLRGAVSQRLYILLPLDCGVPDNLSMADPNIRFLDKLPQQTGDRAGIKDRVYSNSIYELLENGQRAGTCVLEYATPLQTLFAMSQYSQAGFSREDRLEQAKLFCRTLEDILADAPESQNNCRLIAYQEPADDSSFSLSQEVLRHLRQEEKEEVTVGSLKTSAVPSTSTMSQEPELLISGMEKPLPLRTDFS

Row | Structure (SMILES) | EC50
1 | O=C(NCc1ccco1)c1cnc2c(c1)N(Cc1ccccc1)C(=O)CS2 [Example 180, 1-benzyl-N-(furan-2-ylmethyl)-2-oxo-2,3-dihydro-1H-pyrido[2,3-b-1,4]thiazine-7-carboxamide] | > 10 µM
2 | O=C(NCc1ccco1)c1ccc2c(c1)N(Cc1cc(F)ccc1F)C(=O)CS2 [Example 100, 4-(2,5-difluorobenzyl)-N-(furan-2-ylmethyl)-3-oxo-3,4-dihydro-2H-benzo[b-1,4]thiazine-6-carboxamide] | 1 to 10 µM
3 | O=C(NCc1ccco1)c1cc2c(cc1C1CC1)SCC(=O)N2Cc1ccccc1F [Example 229, 7-cyclopropyl-4-(2-fluorobenzyl)-N-(furan-2-ylmethyl)-3-oxo-3,4-dihydro-2H-benzo[b-1,4]thiazine-6-carboxamide] | > 10 µM
4 | NCCC1Sc2ccc(C(=O)NCc3ccc(F)cc3F)cc2N(Cc2cc(F)cc(F)c2)C1=O (centres unmarked) [Example 166, 2-(2-aminoethyl)-N-(2,4-difluorobenzyl)-4-(3,5-difluorobenzyl)-3-oxo-3,4-dihydro-2H-benzo[b] [1,4]thiazine-6-carboxamide] | > 10 µM
5 | O=C(NCc1cccc2ccccc12)c1ccc2c(c1)N(Cc1ccccc1F)C(=O)CS2 [Example 26, 4-(2-fluorobenzyl)-N-(naphthalen-1-ylmethyl)-3-oxo-3,4-dihydro-2H-benzo[b-1,4]thiazine-6-carboxamide] | > 10 µM
6 | CC1(C)C2CC(CNC(=O)c3ccc4c(c3)N(Cc3ccccc3F)C(=O)CS4)CC1C2 (centres unmarked) [Example 22, N-((6,6-dimethyl-bicyclo[3.1.1]heptan-3-yl)methyl)-4-(2-fluorobenzyl)-3-oxo-3,4-dihydro-2H-benzo[b-1,4]thiazine 6-carboxamide] | > 10 µM
7 | CC(c1ccccc1)N1C(=O)CSc2ccc(C(=O)NCc3ccco3)cc21 (centres unmarked) [Example 29, N-(furan-2-ylmethyl)-3-oxo-4-(1-phenylethyl)-3,4-dihydro-2H-benzo[b-1,4]thiazine-6-carboxamide] | > 10 µM
8 | C[C@H]1Oc2ncc(C(=O)NCc3c(F)cc(F)cc3F)cc2N(Cc2cc(F)cc(F)c2)C1=O [Example 238, (R)-1-(3,5-difluorobenzyl)-3-methyl-2-oxo-N-(2,4,6-trifluorobenzyl)-2,3-dihydro-1H-pyrido[2,3-b-1,4]oxazine-7-carboxamide] | 1 to 10 µM
9 | N#CCN(Cc1ccccc1)C(=O)c1ccc2c(c1)N(Cc1ccccc1)C(=O)CS2 [Example 56, N,4-dibenzyl-N-(cyanomethyl)-3-oxo-3,4-dihydro-2H-benzo[b-1,4]thiazine-6-carboxamide] | > 10 µM
10 | CC(C)(NC(=O)c1ccc2c(c1)N(Cc1ccccc1)C(=O)CS2)c1ccccc1F [Example 78, 4-benzyl-N-(2-(2-fluorophenyl)propan-2-yl)-3-oxo-3,4-dihydro-2H-benzo[b-1,4]thiazine-6-carboxamide] | > 10 µM
11 | Cc1cc(C(=O)NCc2ccco2)cc2c1SCC(=O)N2Cc1ccccc1F [Example 226, 4-(2-Fluorobenzyl)-N-(furan-2-ylmethyl)-8-methyl-3-oxo-3,4-dihydro-2H-benzo[b-1,4]thiazine-6-carboxamide] | > 10 µM
12 | O=C(NCc1ccco1)c1ccc2c(c1)N(Cc1cc(Cl)cc(C(F)(F)F)c1)C(=O)CS2 [Example 102, 4-(3-chloro-5-(trifluoromethyl)benzyl)-N-(furan-2-ylmethyl)-3-oxo-3,4-dihydro-2H-benzo[b-1,4]thiazine-6-carboxamide] | 1 to 10 µM
13 | O=C(NCc1ccco1)c1ccc2c(c1)N(Cc1nc3ccccc3o1)C(=O)CS2 [Example 7] | > 10 µM
14 | O=C(CN1C(=O)CSc2ccc(C(=O)NCc3ccco3)cc21)Nc1ccncc1 [Example 4, N-(furan-2-ylmethyl)-3-oxo-4-(2-oxo-2-(pyridin-4-ylamino)ethyl)-3,4-dihydro-2H-benzo[b-1,4]-thiazine-6-carboxamide] | > 10 µM
15 | CC1Sc2ccc(C(=O)NCc3c(F)cc(F)cc3F)nc2N(Cc2c(F)cccc2Cl)C1=O (centres unmarked) [Example 186, 4-(2-chloro-6-fluorobenzyl)-2-methyl-3-oxo-N-(2,4,6-trifluorobenzyl)-3,4-dihydro-2H-pyrido[3,2-b-1,4]thiazine-6-carboxamide] | 1 to 10 µM
16 | O=C(NCc1ccco1)c1ccc2c(c1)N(C(=O)c1ccccc1)CCS2 [Example 255, 4-benzoyl-N-(furan-2-ylmethyl)-3,4-dihydro-2H-benzo[b][1,4]thiazine-6-carboxamide] | > 10 µM
17 | CC1Sc2ncc(C(=O)NCc3cnccn3)cc2N(Cc2cc(F)cc(F)c2)C1=O (centres unmarked) [Example 217, 1-(3,5-difluorobenzyl)-3-methyl oxo-N-(pyrazin-2-ylmethyl)-2,3 dihydro-1H-pyrido[2,3-b][1,4]thiazine-7-carboxamide] | > 10 µM
18 | Cc1noc(CNC(=O)c2ccc3c(c2)N(Cc2cc(F)cc(F)c2)C(=O)C(C)S3)n1 (centres unmarked) [Example 167, 4-(3,5-difluorobenzyl)-2-methyl-N-((3-methyl-1,2,4-oxadiazol-5-yl)methyl)-3-oxo-3,4-dihydro-2H-benzo[b][1,4] thiazine-6-carboxamide] | 1 to 10 µM
19 | N#CCC1Sc2ccc(C(=O)NCc3ccc(F)cc3F)cc2N(Cc2cc(F)cc(F)c2)C1=O (centres unmarked) [Example 162, 2-(cyanomethyl)-N-(2,4-difluorobenzyl)-4-(3,5-difluorobenzyl)-3-oxo-3,4-dihydro-2H-benzo[b][1,4] thiazine-6-carboxamide] | 1 to 10 µM
20 | CN1CCCC(CN2C(=O)CSc3ccc(C(=O)NCc4ccco4)cc32)C1 (centres unmarked) [Example 98, N-(furan-2-ylmethyl)-4-((1-methylpiperidin-3-yl)methyl)-3-oxo-3,4-dihydro-2H-benzo[b-1,4]thiazine-6-carboxamide] | > 10 µM
21 | CC1(O)Sc2ccc(C(=O)NCc3c(F)cc(F)cc3F)cc2N(Cc2c(F)cccc2Cl)C1=O (centres unmarked) [Example 164, 4-(2-chloro-6-fluorobenzyl)-2-hydroxy-2-methyl-3-oxo-N-(2,4,6-trifluorobenzyl)-3,4-dihydro-2H-benzo[b][1,4] thiazine-6-carboxamide] | 1 to 10 µM

The next lines start with the values.

Row | EC50 | Structure (SMILES)
22 | > 10 µM | O=C(NCc1c(F)cc(F)cc1F)c1cc(CCO)c2c(c1)N(Cc1ccc(F)cc1)C(=O)CS2 [Example 222, 4-(4-fluorobenzyl)-8-(2-hydroxyethyl)-3-oxo-N-(2,4,6-trifluorobenzyl)-3,4-dihydro-2H-benzo[b][1,4] thiazine-6-carboxamide]
23 | 1 to 10 µM | Cc1noc(CNC(=O)c2ccc3c(c2)N(Cc2ccccc2)C(=O)CS3)n1 [Example 66, 4-benzyl-N-((3-methyl-1,2,4-oxadiazol-5-yl)methyl)-3-oxo-3,4-dihydro-2H-benzo[b-1,4]thiazine-6-carboxamide]
24 | > 10 µM | CC(O)c1cc(C(=O)NCc2c(F)cc(F)cc2F)cc2c1SCC(=O)N2Cc1ccc(F)cc1 (centres unmarked) [Example 223, 4-(4-fluorobenzyl)-8-(1-hydroxyethyl)-3-oxo-N-(2,4,6-trifluorobenzyl)-3,4-dihydro-2H-benzo[b][1,4] thiazine-6-carboxamide]
25 | > 10 µM | O=C(NCc1ccco1)c1ccc2c(c1)N(Cc1ccc(Cl)s1)C(=O)CS2 [Example 95, 4-((5-chlorothiophen-2-yl)methyl)-N-(furan-2-ylmethyl)-3-oxo-3,4-dihydro-2H-benzo[b-1,4]thiazine-6-carboxamide]
26 | > 10 µM | CN(Cc1ccco1)C(=O)c1ccc2c(c1)N(Cc1ccccc1)C(=O)CS2 [Example 33, 4-benzyl-N-(furan-2-ylmethyl)-N-methyl-3-oxo-3,4-dihydro-2H-benzo[b][1,4] thiazine-6-carboxamide]
27 | 1 to 10 µM | O=C(NCc1ccco1)c1ccc2c(c1)N(Cc1cc(F)ccc1Cl)C(=O)CS2 [Example 99, 4-(2-chloro-5-fluorobenzyl)-N-(furan-2-ylmethyl)-3-oxo-3,4-dihydro-2H-benzo[b-1,4]thiazine-6-carboxamide]
28 | 1 to 10 µM | O=C(NCC1CCCCC1)c1ccc2c(c1)N(Cc1ccccc1F)C(=O)CS2 [Example 16, N-(cyclo-hexylmethyl)-4-(2-fluoro-benzyl)-3-oxo-3,4-dihydro-2H-benzo[b-1,4]thiazine-6-carboxamide]
29 | > 10 µM | CCOC1Sc2ccc(C(=O)NCc3ccco3)cc2N(Cc2ccccc2F)C1=O (centres unmarked) [Example 137, 2-ethoxy-4-(2-fluorobenzyl)-N-(furan-2-ylmethyl)-3-oxo-3,4-dihydro-2H-benzo[b-1,4]thiazine-6-carboxamide]
30 | > 10 µM | O=C(NCc1ccco1)c1ccc2c(c1)N(CC1CCCCC1)C(=O)CS2 [Example 15, 4-(cyclohexyl-methyl)-N-(furan-2-ylmethyl)-3-oxo-3,4-dihydro-2H-benzo[b-1,4]thiazine-6-carboxamide]
31 | > 10 µM | O=C(NCc1ccco1)c1ccc2c(c1)N(Cc1ccccc1F)CCS2 [Example 247, 4-(2-fluorobenzyl)-N-(furan-2-ylmethyl)-3,4-dihydro-2H-benzo[b-1,4]thiazine-6-carboxamide]
32 | > 10 µM | O=C(NCc1ccco1)c1ccc2c(c1)N(CC(=O)N1CCc3ccccc31)C(=O)CS2 [Example 3, N-(furan-2-ylmethyl)-4-(2-(indolin-1-yl)-2-oxoethyl)-3-oxo-3,4-dihyrdo-2H-benzo[b-1,4]thiazine-6-carboxamide]
33 | 1 to 10 µM | N#Cc1ccc(CNC(=O)c2ccc3c(c2)N(Cc2ccccc2)C(=O)CS3)cc1 [Example 71, 4-benzyl-N-(4-cyanobenzyl)-3-oxo-3,4-dihydro-2H-benzo[b-1,4]thiazine-6-carboxamide]
34 | > 10 µM | O=C(NCc1c(F)cc(F)cc1F)c1ccc2c(c1)N(S(=O)(=O)c1cc(F)cc(F)c1)CCS2 [Example 262, 4-((1,5-Difluorophenyl)sulfonyl)-N-(2,4,6-trifluorobenzyl)-3,4-dihydro-2H-benzo[b-1,4]thiazine-6-carboxamide]
35 | > 10 µM | CC(NC(=O)c1ccc2c(c1)N(Cc1ccccc1)C(=O)CS2)c1ccc(S(C)(=O)=O)cc1 (centres unmarked) [Example 57, 4-benzyl-N-(1-(4-(methylsulfonyl)phenyl)ethyl)-3-oxo-3,4-dihydro-2H-benzo[b-1,4]thiazine-6-carboxamide]
